From US6589984B1, “Benzofurylpyrone derivatives” (Teijin Limited, priority 1998, dated 2003)

Experiments:
[1] = Drug effect evaluation test: serum TG, total cholesterol and HDL in rats after 7 days of oral dosing; type: in vivo; conditions: SD male rats, 4 hours after final administration
Experimental: 6-(benzofuran-2-yl)-3,5-dimethyl-4-hydroxy-2H-pyran-2-one (Example 2) was suspended in a 0.5% carboxymethyl cellulose Na aqueous solution (vehicle) to prepare 20 mg/ml and 60 mg/ml administration solutions, and these were orally administered to 6-week-old SD male rats at a dose of 5 ml/kg once a day, for 7 consecutive days. CE-2 by Nihon Crea Co. was used for the rat feed, and the rats were allowed free access to food and water. The rats were separated into a vehicle-administered group of 6 rats and a drug-administered group of 6 rats for a test. At 4 hours after the final drug administration, the rats were killed under ether anesthesia, blood was drawn from the abdominal aorta, and the serum levels of TG, total cholesterol (TC) and HDL-were measured.
Triglyceride EII-HA Test Wako (product of Wako Junyaku Kogyo) was used for the TG measurement, HA Test Wako/Cholesterol E-HA Test Wako (product of Wako Junyaku Kogyo) was used for the total cholesterol (TC) measurement, and HDL-cholesterol Test Wako (product of Wako Junyaku Kogyo) was used for the HDL measurement.

[2] = system: Human hepatic cancer cells HepG2; experiment: TG production inhibiting activity (14C-acetic acid incorporation into TG) in HepG2 cells; type: cell-based; conditions: for IC50: group criterion, alternatives: IC50 less than 10 μM, or at least 30% inhibition at 1 μM, or at least 50% inhibition at 10 μM
Summary of the method: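 HepG2 cells cultured 6 days in eRDF with 10% bovine serum, then in serum-free eRDF given compound (diluted from 20 mM DMSO stock) plus 14C-acetic acid for one day at 37 °C, 5% CO2. Lipids extracted with hexane/isopropanol 2:1 and separated by TLC; the TG spot was cut out and counted by liquid scintillation.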

[3] = 100 mg/kg orally once a day for 7 days
[4] = 300 mg/kg orally once a day for 7 days

Row | IC50 ([2]; Homo sapiens, HepG2) [µM] | SMILES | Serum HDL-C (mg/dl) (mean ± SE) [1, 3] [mg/dL] | Serum TG (mg/dl) (mean ± SE) [1, 3] [mg/dL] | Serum HDL-C (mg/dl) (mean ± SE) [1, 4] [mg/dL] | Serum TG (mg/dl) (mean ± SE) [1, 4] [mg/dL] | triglyceride biosynthesis inhibiting activity ([2]; HepG2, conclusion in words from Table 1) | inhibition at 1 µM ([2]; Homo sapiens, 24 h, sample concentration 1 μM, HepG2, one day culture with 14C-acetic acid) [%] | inhibition at 10 µM ([2]; Homo sapiens, 24 h, sample concentration 10 μM, HepG2, one day culture with 14C-acetic acid) [%] | inhibition at 100 µM ([2]; Homo sapiens, 24 h, sample concentration 100 μM, HepG2, one day culture with 14C-acetic acid) [%]
1 | < 10 | Cc1c(-c2cc3ccccc3o2)oc(=O)c(C)c1O [Example 2, 6-(benzofuran-2-yl)-3,5-dimethyl-4-hydroxy-2H-pyran-2-one] | 35.0 ± 3.1 | 94.8 ± 6.5 | 42.2 ± 3.8 | 74.8 ± 10.7 | exhibits triglyceride biosynthesis inhibiting activity | 22 | 70 | 98
2 | < 10 | Cc1c(-c2cc3cc(C(=O)N(C)c4ccncc4)ccc3o2)oc(=O)c(C)c1O [Example 309, 3,5-dimethyl-4-hydroxy-6-(5-(N-methyl-N-(4-pyridyl)carbamoyl)benzofuran-2-yl)-2H-pyran-2-one] | – | – | – | – | – | – | – | –
